Reference: patent US7910751B2, “Heterocyclidene acetamide derivative” (Mochida Pharmaceutical Co., Ltd., priority 2005, dated 2011)

Target: T1, human TRPV1 (Homo sapiens, UniProt Q8NER1)
T1 construct: expressed in transfected cells; host or cells: CHO-K1
Test: Measurement of capsaicin-induced Ca influx in human TRPV1 transformed CHO cell line using FDSS-6000
Assay type: cell-based
Settings: concentration at which the capsaicin concentration-reaction curve is shifted two times to the right, human TRPV1 transformed CHO cells
From the text: [Measurement of Capsaicin-Induced Ca Influx in Human TRPV1 Transformed CHO Cell Line]
(1) Establishment of Human TRPV1 Transformed CHO Cell Line
Human vanilloid receptor 1 (hTRPV1) cDNA was cloned from a human brain. The cloned hTRPV1 cDNA was incorporated in a pCAGGS vector. The gene of the vector was introduced to a CHO-K1 cell line, thus performing transformation. Clones obtained by limiting dilution were stimulated with capsaicin. Clones with a high responsiveness were selected using an increase in the Ca concentration as an indicator. The selected clones were used for the following experiment.
(2) Measurement of Ca Influx Using FDSS-6000
The human TRPV1 transformed CHO cells were seeded in a 96-well plate (with black walls and transparent bottoms, manufactured by Greiner) at a density of 40,000 cells per well. The cells were cultured at 37° C. in 5% CO2 for one night. A loading solution of FLIPR Calcium 3 assay kit (manufactured by Molecular Devices Corporation) containing 2.5 mmol/L of probenecid was then added to each of the wells in the same amount as the culture medium, and the cells were cultured at 37° C. for 60 minutes. After the cells were stimulated with capsaicin (1 nmol/L to 1 μmol/L), the change in the Ca concentration in the cells was measured using FDSS-6000 (λex: 480 nm, λem: 540 nm, manufactured by Hamamatsu Photonics K.K.) for three minutes. The integrated values of the increase rate of the Ca concentration in the cells were calculated for a group treated with the compounds of the present invention and a group treated with a medium, thus allowing capsaicin concentration-reaction curves to be obtained. A concentration (A2 value) of each of the compounds of the present invention, at which the capsaicin concentration-reaction curve obtained when the cells were treated with the medium was shifted two times to the right side, was calculated. The inhibiting effects of the test compounds were compared using this value as an indicator.
In the case where a compound of the present invention is an agonist, when the cells are treated with the compound of the present invention prior to the capsaicin stimulation, the Ca influx is observed. In Table 1, compounds of the present invention having an A2 value of less than 100 nM are represented by A, and compounds having an A2 value of 100 nM or more are represented by B. When the A2 values of the compounds of the present invention were measured by the above-described method, the compounds have an intensity of 1 μM or less.

T1 sequence (Q8NER1 whole entry): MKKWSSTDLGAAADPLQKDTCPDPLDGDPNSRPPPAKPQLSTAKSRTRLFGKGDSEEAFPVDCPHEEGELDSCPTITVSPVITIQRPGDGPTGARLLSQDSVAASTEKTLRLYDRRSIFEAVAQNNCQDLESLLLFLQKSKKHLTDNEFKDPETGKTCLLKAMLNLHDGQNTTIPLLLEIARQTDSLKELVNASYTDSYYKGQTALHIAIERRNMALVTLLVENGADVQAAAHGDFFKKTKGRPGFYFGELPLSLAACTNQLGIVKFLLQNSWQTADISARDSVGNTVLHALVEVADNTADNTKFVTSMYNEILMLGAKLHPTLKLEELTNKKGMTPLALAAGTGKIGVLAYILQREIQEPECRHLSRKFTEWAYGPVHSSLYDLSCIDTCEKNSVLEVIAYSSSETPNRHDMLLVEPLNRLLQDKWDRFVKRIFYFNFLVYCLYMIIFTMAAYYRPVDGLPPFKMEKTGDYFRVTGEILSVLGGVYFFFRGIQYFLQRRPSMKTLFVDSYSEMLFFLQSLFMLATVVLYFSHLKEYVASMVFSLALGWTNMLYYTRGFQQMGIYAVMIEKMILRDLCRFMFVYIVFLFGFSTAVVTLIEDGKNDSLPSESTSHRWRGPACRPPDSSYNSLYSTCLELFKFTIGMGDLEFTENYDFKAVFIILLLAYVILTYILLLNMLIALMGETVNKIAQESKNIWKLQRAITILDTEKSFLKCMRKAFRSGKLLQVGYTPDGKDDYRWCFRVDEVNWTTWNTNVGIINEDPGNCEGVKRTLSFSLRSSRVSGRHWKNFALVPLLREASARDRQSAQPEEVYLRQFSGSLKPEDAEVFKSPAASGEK

CC1(C(=O)N2CC/C(=C\C(=O)Nc3cccc4c3CC(O)CC4)c3ccc(C(F)(F)F)cc32)CCC1 (stereo not drawn) [Example 90, (E)-2-(1-(1-methylcyclobutanecarbonyl)-7-trifluoromethyl-2,3-dihydroquinolin-4(1H)-ylidene)-N-(7-hydroxy-5,6,7,8-tetrahydronaphthalen-1-yl)acetamide]
A2 VALUE: A (compounds of the present invention having an A2 value of less than 100 nM are represented by A)

O=C(/C=C1\CCCOc2cc(C(F)(F)F)ccc21)Nc1ccc2c(c1)N(C(=O)CO)CCO2 [Example 231]
A2 VALUE: B (compounds having an A2 value of 100 nM or more are represented by B)

O=C(/C=C1\CCCOc2cc(C(F)(F)F)ccc21)Nc1ccc2c(c1)C(=O)CC2 [Example 157, (E)-2-(8-trifluoromethyl-3,4-dihydrobenzo[b]oxepin-5(2H)-ylidene)-N-(indan-1-on-6-yl)acetamide]
A2 VALUE: A (compounds of the present invention having an A2 value of less than 100 nM are represented by A)

CC(=O)N1CCC/C(=C\C(=O)Nc2ccc3cccnc3c2)c2ccc(C(F)(F)F)cc21 [Example 195, (E)-2-(1-acetyl-8-trifluoromethyl-1,2,3,4-tetrahydro-5H-benzo[b]azepin-5-ylidene)-N-(quinolin-7-yl)acetamide]
A2 VALUE: B (compounds having an A2 value of 100 nM or more are represented by B)

O=C(/C=C1\CCCOc2cc(C(F)(F)F)ccc21)Nc1ccc2c(c1)C(=O)OC2 [Example 24, (E)-2-(8-trifluoromethyl-3,4-dihydrobenzo[b]oxepin-5(2H)-ylidene)-N-(1,3-dihydro-1-oxoisobenzofuran-6-yl)acetamide]
A2 VALUE: A (compounds of the present invention having an A2 value of less than 100 nM are represented by A)

O=C(/C=C1\CCCOc2cc(C(F)(F)F)ccc21)NCc1nnc2ccccn12 [Example 40]
A2 VALUE: B (compounds having an A2 value of 100 nM or more are represented by B)

O=C(/C=C1\CCCOc2cc(C(F)(F)F)ccc21)NCc1ccccc1N1CCOCC1 [Example 36, (E)-2-(8-trifluoromethyl-3,4-dihydrobenzo[b]oxepin-5(2H)-ylidene)-N-(2-morpholinophenyl)methyl-acetamide]
A2 VALUE: B (compounds having an A2 value of 100 nM or more are represented by B)

CN1C(=O)CCc2ccc(NC(=O)/C=C3\CCCOc4cc(C(F)(F)F)ccc43)cc21 [Example 178, (E)-2-(8-trifluoromethyl-3,4-dihydrobenzo[b]oxepin-5(2H)-ylidene)-N-(1-methyl-2-oxo-1,2,3,4-tetrahydroquinolin-7-yl)acetamide]
A2 VALUE: A (compounds of the present invention having an A2 value of less than 100 nM are represented by A)

CC(C)(C)c1ccc2c(c1)OCC/C2=C\C(=O)NC1CCc2cccnc2C1 (stereo not drawn) [Example 3, (E)-2-(7-tert-butyl-chroman-4-ylidene)-N-(5,6,7,8-tetrahydroquinolin-7-yl)acetamide]
A2 VALUE: A (compounds of the present invention having an A2 value of less than 100 nM are represented by A)

O=C(/C=C1\CCOc2ccccc21)Nc1cccc2cnccc12 [Example 2, (E)-2-(chroman-4-ylidene)-N-(isoquinolin-5-yl)acetamide]
A2 VALUE: B (compounds having an A2 value of 100 nM or more are represented by B)

O=C(/C=C1\CCN(C(=O)C2CC2)c2cc(C(F)(F)F)ccc21)Nc1ccc2cccnc2c1 [Example 99, (E)-2-(7-trifluoromethyl-2,3-dihydro-1-cyclopropanecarbonylquinolin-4(1H)-ylidene)-N-(quinolin-7-yl)acetamide]
A2 VALUE: A (compounds of the present invention having an A2 value of less than 100 nM are represented by A)

O=C(/C=C1\CCCOc2cc(C(F)(F)F)ccc21)Nc1cccc2c1CCC2O (stereo not drawn) [Example 160, (E)-2-(8-trifluoromethyl-3,4-dihydrobenzo[b]oxepin-5(2H)-ylidene)-N-(indan-1-ol-4-yl)acetamide]
A2 VALUE: A (compounds of the present invention having an A2 value of less than 100 nM are represented by A)

CC1(O)CCc2cccc(NC(=O)/C=C3\CCCOc4cc(C(F)(F)F)ccc43)c2C1 (stereo not drawn) [Example 220, (E)-2-(8-trifluoromethyl-3,4-dihydrobenzo[b]oxepin-5(2H)-ylidene)-N-(7-hydroxy-7-methyl-5,6,7,8-tetrahydronaphthalen-1-yl)acetamide]
A2 VALUE: A (compounds of the present invention having an A2 value of less than 100 nM are represented by A)

O=C(/C=C1\CCCOc2cc(C(F)(F)F)ccc21)Nc1ccccc1CCO [Example 60, (E)-2-(8-trifluoromethyl-3,4-dihydrobenzo[b]oxepin-5(2H)-ylidene)-N-((2-hydroxyethyl)phenyl-1-yl)acetamide]
A2 VALUE: A (compounds of the present invention having an A2 value of less than 100 nM are represented by A)

Cc1ccc(S(=O)(=O)N2CCC/C(=C\C(=O)Nc3ccc4cccnc4c3)c3ccc(C(F)(F)F)cc32)cc1 [Example 194, (E)-2-(1-(4-methylbenzenesulfonyl)-8-trifluoromethyl-1,2,3,4-tetrahydro-5H-benzo[b]azepin-5-ylidene)-N-(quinolin-7-yl)acetamide]
A2 VALUE: B (compounds having an A2 value of 100 nM or more are represented by B)

O=C(/C=C1\CCOc2cc(C(F)(F)F)ccc21)NC1CCc2cccnc2C1 (stereo not drawn) [Example 6, (E)-2-(7-trifluoromethyl-chroman-4-ylidene)-N-(5,6,7,8-tetrahydroquinolin-7-yl)acetamide]
A2 VALUE: A (compounds of the present invention having an A2 value of less than 100 nM are represented by A)

O=C(/C=C1\CCCOc2cc(C(F)(F)F)ccc21)Nc1cccc2c1CC1OC1C2 (stereo not drawn) [Example 169, (E)-2-(8-trifluoromethyl-3,4-dihydrobenzo[b]oxepin-5(2H)-ylidene)-N-(1a,2,7,7a-tetrahydronaphtho[b]oxiren-3-yl)acetamide]
A2 VALUE: A (compounds of the present invention having an A2 value of less than 100 nM are represented by A)

CCCCC(=O)N1CC/C(=C\C(=O)Nc2ccc3cccnc3c2)c2ccc(C(F)(F)F)cc21 [Example 50, (E)-2-(7-trifluoromethyl-2,3-dihydro-1-pentanoylquinolin-4(1H)-ylidene)-N-(quinolin-7-yl)acetamide]
A2 VALUE: A (compounds of the present invention having an A2 value of less than 100 nM are represented by A)

CC1(C(=O)N2CC/C(=C\C(=O)Nc3cccc4c3CC(O)CC4)c3ccc(C(F)(F)F)cc32)CC1 (stereo not drawn) [Example 89, (E)-2-(1-(1-methylcyclopropanecarbonyl)-7-trifluoromethyl-2,3-dihydroquinolin-4(1H)-ylidene)-N-(7-hydroxy-5,6,7,8-tetrahydronaphthalen-1-yl)acetamide]
A2 VALUE: A (compounds of the present invention having an A2 value of less than 100 nM are represented by A)

O=C(/C=C1\CCOc2nc(C(F)(F)F)ccc21)Nc1cccc2c1CC(O)CC2 (stereo not drawn) [Example 238, (E)-2-(7-trifluoromethyl-3,4-dihydro-2H-pyrano[2,3-b]pyridin-4-ylidene)-N-(7-hydroxy-5,6,7,8-tetrahydronaphthalen-1-yl)acetamide]
A2 VALUE: A (compounds of the present invention having an A2 value of less than 100 nM are represented by A)

CCCCC(=O)N1CC/C(=C\C(=O)Nc2cccc3c2CC(O)CC3)c2ccc(C(F)(F)F)cc21 (stereo not drawn) [Example 83, (E)-2-(1-pentanoyl-7-trifluoromethyl-2,3-dihydroquinolin-4(1H)-ylidene)-N-(7-hydroxy-5,6,7,8-tetrahydronaphthalen-1-yl)acetamide]
A2 VALUE: A (compounds of the present invention having an A2 value of less than 100 nM are represented by A)

O=C(/C=C1\CCCOc2cc(C(F)(F)F)ccc21)NC1CCc2cccnc2C1 (stereo not drawn) [Example 10, (E)-2-(8-trifluoromethyl-3,4-dihydrobenzo[b]oxepin-5(2H)-ylidene)-N-(5,6,7,8-tetrahydroquinolin-7-yl)acetamide]
A2 VALUE: A (compounds of the present invention having an A2 value of less than 100 nM are represented by A)

O=C(/C=C1\CCOc2cc(Cl)ccc21)Nc1cccc2c1CC(O)CC2 (stereo not drawn) [Example 208, (E)-2-(7-chloro-chroman-4-ylidene)-N-(7-hydroxy-5,6,7,8-tetrahydronaphthalen-1-yl)acetamide]
A2 VALUE: A (compounds of the present invention having an A2 value of less than 100 nM are represented by A)

CC(NC(=O)/C=C1\CCCOc2cc(C(F)(F)F)ccc21)c1ccc2c(c1)OCCO2 (stereo not drawn) [Example 33, (E)-2-(8-trifluoromethyl-3,4-dihydrobenzo[b]oxepin-5(2H)-ylidene)-N-(1-(2,3-dihydrobenzo[b][1,4]dioxin-6-yl)ethyl)acetamide]
A2 VALUE: B (compounds having an A2 value of 100 nM or more are represented by B)
